This is an account of results in patent US7459444B2, “Inhibitors of chymase” (Janssen Pharmaceutica N.V., priority 2004, dated 2008).

Data set [1] can be described thus: Pharmacokinetic assay for evaluation of oral absorption potential. It is filed as in vivo. The note with it: rat; male Sprague Dawley rats, oral gavage 15 mg/kg in 20% hydroxy-beta-cyclo dextran, plasma, N = 2. Here is the method: Male Sprague Dawley rats, weighing 250-300 g, were fasted overnight then dosed by oral gavage at a level of 15 mg/kg with a compound. Compounds were formulated in 20% hydroxy-beta-cyclo dextran.
Blood samples (0.5 mL) were collected into lithium heparinized tubes at 0.5, 1.0 and 2.0 h post dose via orbital sinus puncture. Blood samples were centrifuged at 2000 rpm for ˜3 min for cell removal, approximately 200 μL of plasma supernatant was then transferred to a clean vial, frozen then placed on dry ice and delivered to SFBC Analytical Labs, Inc. for analysis.
Plasma samples were prepared as follows. Two hundred microliters of acetonitrile containing 1 μM internal standard was added to 100 μL of plasma to precipitate proteins. Samples were centrifuged at 5000 g for 5 min and supernatant removed for analysis by LC-MS. Two hundred microliters of water was added to adjust sample solvent strength and prevent peak splitting. Calibration standards were prepared by adding appropriate volumes of stock solution directly into plasma and treated identically to collected plasma samples. Calibration standards were prepared in the range of 0.1 to 10 μM for quantitation. LC-MS analysis was performed using MRM (Multiple Reaction Monitoring) detection of characteristic ions for each drug candidate and internal standard.

The next data set deals with angiotensin II activity. The settings on record: human vascular extracts; cited from earlier work.
Data set [2] has as its system Ascaris suum antigen-induced asthmatic response in conscious sheep. Nature of the data set: Ascaris suum antigen-induced asthmatic response in conscious sheep. It counts as in vivo. The settings on record: for early airway response (0-2 h after antigen challenge) / late airway response (6-8 h after antigen challenge): n=2 sheep/group. The procedure: The efficacy of Compound 17 for the treatment of asthma was evaluated in a validated model of Ascaris suum antigen-induced asthmatic response in conscious sheep (Abraham, W. M., Pharmacology of allergen-induced early and late airway responses and antigen-induced airway hyperresponsiveness in allergic sheep, Pulmonary Pharmacology, 1989, 2, 33-40).
Baseline (BSL) dose response curves to aerosol carbachol were obtained from historical control responses prior to antigen challenge. Baseline values of specific lung resistance (SRL) were obtained and the sheep were then given a specified amount (mg) of the test compound as an inhaled aerosol or as a oral dose at a specified time before antigen challenge. Post-drug measurements of SRL were obtained and the sheep were then challenged with Ascaris suum antigen. Measurements of SRL were obtained immediately after challenge, hourly from 1-6 h after challenge and on the half-hour from 6½-8 h after challenge. Measurements of SRL were obtained 24 h after challenge followed by a 24 h post-challenge with carbachol to measure airway hyperreactivity.
Compound 17 was administered as an aerosol at 4.5 mg/dose (ca. 0.1 mg/Kg/dose, based on a 45 Kg sheep), twice-a-day (BID) for three consecutive days, followed by a dose on day 4, 0.5 h prior to antigen challenge. Ascaris suum antigen challenge was given at the zero time point.
Compound 17 was administered as an oral solution at 15 mg/Kg/dose, twice-a-day (BID) for three consecutive days, followed by a dose on day 4, 2 h prior to antigen challenge. Ascaris suum antigen challenge was given at the zero time point.

The mark [3] stands for this setting: aerosol 4.5 mg/dose BID for three days plus dose on day 4, 0.5 h prior to antigen challenge, FIG. 1.
[4] abbreviates: oral solution 15 mg/Kg/dose BID for three days plus dose on day 4, 2 h prior to antigen challenge, FIG. 3.

Bounds are passed on as bounds.

For the compound `O=C(N/C=C/c1ccc(F)c(F)c1)C(c1csc2ccc(Cl)cc12)P1(=O)OCCCO1` (centres unmarked) [Cpd 189, 2-(5-Chloro-benzo[b]thiophen-3-yl)-N-[2-(3,4-difluoro-phenyl)-vinyl]-2-(2-oxo-2,5-[1,3,2]dioxaphosphinan-2-yl)-acetamide], the concentration in data set [1] peaked (Cmax at 2 h) at 21.1 ± 2.3 µM.

Regarding `NCCCC[C@H](N[C@@H](CCc1ccccc1)C(=O)O)C(=O)N1CCC[C@H]1C(=O)O` [lisinopril], the “angiotensin II activity inhibited” value in the data set on angiotensin II activity is “about 8%”. Take `CCN(CC)C(=O)COP(=O)(OCC(=O)N(CC)CC)C(C(=O)N/C=C/c1ccccc1)c1cccc2ccccc12` (centres unmarked) [Cpd 180, (Naphthalen-1-yl-styrylcarbamoyl-methyl)-phosphonic acid didiethylcarbamoylmethyl ester]: the Cmax at 2 h in data set [1] is < 0.1 µM.

Compound `CC(C)(C)C(=O)OCOP(=O)(OCOC(=O)C(C)(C)C)C(C(=O)N/C=C/c1ccc(F)c(F)c1)c1csc2ccc(Cl)cc12` (centres unmarked) [Cpd 186, 2,2-Dimethyl-propionic acid {(5-chloro-benzo[b]thiophen-3-yl)-[2-(3,4-difluoro-phenyl)-vinylcarbamoyl]-methyl}-(2,2-dimethyl-propionyloxymethoxy)-phosphinoyloxymethyl ester] yielded a Cmax at 2 h in data set [1] of 20.1 ± 3.5 µM.

In the case of `CC(C)(C)C(=O)OCOP(C)(=O)C(C(=O)N/C=C/c1ccc(F)c(F)c1)c1csc2ccc(Cl)cc12` (centres unmarked) [Cpd 182], the Cmax at 2 h in data set [1] worked out at 11.8 ± 3.26 µM. This Cmax at 2 h is about 1.7-fold lower than that of the compound before. As to `CP(=O)(O)C(C(=O)N/C=C/c1ccc(F)c(F)c1)c1csc2ccc(Cl)cc12` (centres unmarked) [Cpd 17], the “early airway response (0-2 h after antigen challenge)” value in data set [2] (setting [3]) and in data set [2] (setting [4]) was “unchanged” throughout. The “late airway response (6-8 h after antigen challenge)” value in data set [2] (setting [3]) and in data set [2] (setting [4]) was “completely blocked” in each case. Moreover, the “delayed airway hyperreactivity at 24 h post antigen challenge (carbachol challenge)” value is recorded as “completely blocked” in data set [2] (aerosol administration, FIG. 2) and “completely blocked” in data set [2] (oral administration, FIG. 4).
